The assay addresses T1, sodium-proton exchanger of subtype 3 (NHE3) (Homo sapiens, UniProt P48764).
T1 construct: expressed in transfected cells
T1 sequence (P48764 26-834): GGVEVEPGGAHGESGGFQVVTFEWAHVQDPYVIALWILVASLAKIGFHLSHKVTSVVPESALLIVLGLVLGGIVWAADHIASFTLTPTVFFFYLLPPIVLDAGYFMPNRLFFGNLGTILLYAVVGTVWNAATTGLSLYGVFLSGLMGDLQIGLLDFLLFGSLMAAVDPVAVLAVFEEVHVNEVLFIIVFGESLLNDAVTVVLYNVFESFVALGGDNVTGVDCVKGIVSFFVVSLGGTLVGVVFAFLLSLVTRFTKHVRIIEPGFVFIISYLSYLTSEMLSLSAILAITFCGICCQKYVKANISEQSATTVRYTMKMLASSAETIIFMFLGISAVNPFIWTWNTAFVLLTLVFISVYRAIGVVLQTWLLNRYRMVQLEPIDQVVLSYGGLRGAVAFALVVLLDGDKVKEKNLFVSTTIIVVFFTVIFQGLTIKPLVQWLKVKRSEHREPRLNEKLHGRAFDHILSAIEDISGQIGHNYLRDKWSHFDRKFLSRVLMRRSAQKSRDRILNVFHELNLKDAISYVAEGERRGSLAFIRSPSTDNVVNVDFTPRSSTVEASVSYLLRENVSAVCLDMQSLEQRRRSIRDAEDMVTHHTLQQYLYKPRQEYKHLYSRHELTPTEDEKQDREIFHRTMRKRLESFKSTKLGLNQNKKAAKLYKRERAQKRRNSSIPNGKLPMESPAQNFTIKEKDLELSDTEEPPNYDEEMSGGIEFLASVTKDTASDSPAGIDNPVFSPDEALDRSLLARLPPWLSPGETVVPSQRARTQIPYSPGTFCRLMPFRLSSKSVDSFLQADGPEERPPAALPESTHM
Nature of the assay: Recovery of intracellular pH (pHi) after acidification in LAP1 cells stably expressing NHE3 (BCECF fluorescence, FLIPR). The conditions noted are these: LAP1 cells stably expressing NHE3, pH recovery after acidification, range 1 is % inhibition at 10 μM. It counts as cell-based.

The mark [1] stands for this setting: read-out: Activity range (inhibitory effect on NHE3).

Like-named read-outs stand apart in the source and are kept apart here.

In the case of `O=C1CCCN1c1ccc(O[C@H]2c3cc(Cl)cc(Cl)c3C[C@@H]2N2CCC2)cc1` [Example 259, 1-[4-((1S,2S)-2-azetidin-1-yl-4,6-dichloroindan-1-yloxy)phenyl]pyrrolidin-2-one], the inhibition at 10 µM under setting [1] was 20 to 50%.
On to `NC(=O)c1ccc(O[C@@H]2c3ccccc3C[C@H]2N2CCC[C@@H](N)C2)cc1` (racemic) [Example 525, 4-[rac-trans-(1,2)-2-((R)-3-aminopiperidin-1-yl)indan-1-yloxy]benzamide], for which the IC50 under setting [1] fell in the range of 1000 to 10000 nM.
On to `CC(=O)Nc1cccc(O[C@H]2c3cc(F)cc(Cl)c3C[C@@H]2N2CCCC2)c1` (racemic) [Example 651, N-[3-(rac-trans-(1,2)-4-chloro-6-fluoro-2-pyrrolidin-1-ylindan-1-yloxy)phenyl]acetamide], for which the IC50 under setting [1] lay within 1000 to 10000 nM.
As for `NCC1CCN([C@@H]2Cc3ccccc3[C@H]2Oc2cccc(NC(N)=O)c2)CC1` (racemic) [Example 235, {3-[rac-trans-(1,2)-2-(4-aminomethylpiperidin-1-yl)indan-1-yloxy]phenyl}urea], under setting [1], the IC50 lay in the range of 1000 to 10000 nM.
Regarding `CS(=O)(=O)c1ccc(O[C@@H]2c3ccccc3C[C@H]2NC2CCCCCC2)cc1` (racemic) [Example 711, Cycloheptyl-[rac-trans-(1,2)-1-(4-methanesulfonyl-phenoxy)-indan-2-yl]-amine], the inhibition at 10 µM under setting [1] lay within 20 to 50%.
In the case of `N[C@H]1CCCN([C@H]2CCc3ccccc3[C@@H]2Oc2ccc(NC(=O)OCc3ccccc3)cc2)C1` (racemic) [Example 239, {4-[rac-trans-(1,2)-2-((S)-3-aminopiperidin-1-yl)-1,2,3,4-tetrahydronaphthalen-1-yloxy]phenyl}carbamic acid benzyl ester], the inhibition at 10 µM under setting [1] lay within 20 to 50%.
Consider `NCC1CCN([C@@H]2Cc3ccccc3[C@H]2Oc2ccc3c(c2)OCO3)C1` (mixture of isomers) [Example 621, C-{1-[rac-trans-(1,2)-1-(benzo[1,3]dioxol-5-yloxy)indan-2-yl]pyrrolidin-3-yl}methylamine], for which the IC50 under setting [1] fell in the range of 1000 to 10000 nM.
Turning to `N[C@@H]1CCCN([C@H]2CCc3ccccc3[C@@H]2Oc2ccccc2Br)C1` (racemic) [Example 36, (R)-1-[rac-trans-(1,2)-1-(2-bromophenoxy)-1,2,3,4-tetrahydronaphthalen-2-yl]piperidin-3-ylamine], the inhibition at 10 µM under setting [1] lay in the range of 20 to 50%.
Consider `Cc1nc2cc(O[C@H]3c4cc(Cl)cc(Cl)c4C[C@@H]3N3CCNCC3)ccc2s1` (racemic) [Example 572, 5-(rac-trans-(1,2)-4,6-dichloro-2-piperazin-1-ylindan-1-yloxy)-2-methylbenzothiazole], for which the IC50 under setting [1] was in the range of 1000 to 10000 nM.
Regarding `N[C@@H]1CCCN([C@H]2CCc3ccccc3[C@@H]2Oc2ccc(NC(=O)OCc3ccccc3)cc2)C1` (racemic) [Example 237, {4-[rac-trans-(1,2)-2-((R)-3-aminopiperidin-1-yl)-1,2,3,4-tetrahydronaphthalen-1-yloxy]phenyl}carbamic acid benzyl ester], under setting [1], the inhibition at 10 µM fell in the range of 20 to 50%.
Turning to `N[C@@H]1CCCN([C@@H]2Cc3ccccc3[C@H]2Oc2cccc(N3CCCCC3)c2)C1` (racemic) [Example 59, (R)-1-[rac-trans-(1,2)-1-(3-piperidin-1-ylphenoxy)indan-2-yl]piperidin-3-ylamine], the IC50 under setting [1] lay in the range of 1000 to 10000 nM.
With `CS(=O)(=O)c1ccc(O[C@H]2c3cc(Cl)cc(Cl)c3C[C@@H]2N2CCC[C@@H](NCCC(F)(F)F)C2)cc1` [Example 223, {(R)-1-[trans-(1S,2S)-4,6-dichloro-1-(4-methanesulfonylphenoxy)indan-2-yl]piperidin-3-yl}-(3,3,3-trifluoropropyl)amine], the IC50 under setting [1] is less than 1000 nM.
Regarding `CCc1ccc(O[C@@H]2c3ccccc3C[C@H]2N2CCC[C@@H](N)C2)c(C(C)(C)C)c1` (racemic) [Example 49, (R)-1-[rac-trans-(1,2)-1-(2-tert-butyl-4-ethylphenoxy)indan-2-yl]piperidin-3-ylamine], the IC50 under setting [1] was 1000 to 10000 nM.
For the compound `CN(C)S(=O)(=O)c1ccc(N[C@H]2c3cc(Cl)cc(Cl)c3C[C@@H]2N2CC[C@@H](O)C2)cc1` [Example 481, 4-[(1S,2S)-4,6-dichloro-2-((R)-3-hydroxypyrrolidin-1-yl)indan-1-ylamino]-N,N-dimethylbenzenesulfonamide], the IC50 under setting [1] fell in the range of 1000 to 10000 nM.
In the case of `NC(=O)Cc1c[nH]c2ccc(O[C@@H]3c4ccccc4C[C@H]3N3CCC(N)C3)cc12` (mixture of isomers) [Example 387, 2-{5-[rac-trans-(1,2)-2-(3-aminopyrrolidin-1-yl)indan-1-yloxy]-1H-indol-3-yl}acetamide], under setting [1], the IC50 was 1000 to 10000 nM.
In the case of `CN(C)CCCN(C)[C@H]1Cc2c(Cl)cc(Cl)cc2[C@@H]1Oc1ccc(S(C)(=O)=O)cc1` [Example 672, N-[trans-(1S,2S)-4,6-dichloro-1-(4-methanesulfonylphenoxy)indan-2-yl]-N,N′,N′-trimethylpropane-1,3-diamine], the IC50 under setting [1] is less than 1000 nM.
With `Cc1nnc(C)n1-c1ccc(O[C@H]2c3cc(F)cc(F)c3C[C@@H]2N2CC[C@@H](O)C2)c(F)c1` [Example 110, (R)-1-{(1S,2S)-1-[4-(3,5-dimethyl-[1,2,4]triazol-4-yl)-2-fluorophenoxy]-4,6-difluoroindan-2-yl}pyrrolidin-3-ol], the IC50 under setting [1] was less than 1000 nM.
For `CS(=O)(=O)c1ccc(O[C@H]2c3ccccc3CC[C@@H]2N2CCC[C@H](N)C2)cc1` (racemic) [Example 182, (S)-1-[rac-trans-(1,2)-1-(4-methanesulfonylphenoxy)-1,2,3,4-tetrahydronaphthalen-2-yl]piperidin-3-ylamine], the IC50 under setting [1] lay in the range of 1000 to 10000 nM.
Regarding `CC(=O)Nc1cccc(O[C@H]2c3cccc(F)c3C[C@@H]2N2CCCC2)c1` (racemic) [Example 652, N-[3-(rac-trans-(1,2)-4-fluoro-2-pyrrolidin-1-ylindan-1-yloxy)phenyl]acetamide], the IC50 under setting [1] was in the range of 1000 to 10000 nM.
In the case of `N[C@@H]1CCCN([C@H]2CCc3ccccc3[C@@H]2Oc2cnc3ccccc3c2)C1` (racemic) [Example 87, (R)-1-[rac-trans-(1,2)-1-(quinolin-3-yloxy)-1,2,3,4-tetrahydronaphthalen-2-yl]piperidin-3-ylamine], under setting [1], the inhibition at 10 µM was in the range of 20 to 50%.
For `N[C@@H]1CCCN([C@@H]2Cc3ccccc3[C@H]2Oc2ccncc2)C1` (racemic) [Example 86, (R)-1-[rac-trans-(1,2)-1-(pyridin-4-yloxy)indan-2-yl]piperidin-3-ylamine], the IC50 under setting [1] was 1000 to 10000 nM.
Regarding `N[C@@H]1CCCN([C@H]2CCc3ccccc3[C@@H]2Oc2ccc(F)c(Cl)c2)C1` (racemic) [Example 52, (R)-1-[rac-trans-(1,2)-1-(3-chloro-4-fluorophenoxy)-1,2,3,4-tetrahydronaphthalen-2-yl]piperidin-3-ylamine], the inhibition at 10 µM under setting [1] was in the range of 20 to 50%.
In turn, `Clc1cc(Cl)c2c(c1)[C@H](Oc1ccc(-n3cncn3)cc1)[C@@H](N1C[C@H]3CC[C@@H](C1)N3)C2` [Example 2, 3-[trans-(1S,2S)-4,6-dichloro-1-(4-[1,2,4]triazol-1-ylphenoxy)indan-2-yl]-3,8-diazabicyclo[3.2.1]octane] came in with an IC50 (Activity range (inhibitory effect on NHE3)) of 1000 to 10000 nM.
As for `N#Cc1ccc(O[C@H]2c3cc(Cl)cc(F)c3C[C@@H]2N2CC[C@@H](O)C2)c(F)c1` [Example 557, 4-[trans-(1S,2S)-6-chloro-4-fluoro-2-((R)-3-hydroxypyrrolidin-1-yl)indan-1-yloxy]-3-fluorobenzonitrile], the IC50 under setting [1] was 1000 to 10000 nM.

These data come from US8822449B2, “Substituted aminoindanes and analogs thereof, and the pharmaceutical use thereof” (Sanofi, priority 2008, dated 2014).
